Assay results: PubChem BioAssay AID1645861 (Buhrlage Lab, Dana-Farber Cancer Institute and Novartis …, 2021)
The source made the active and inactive calls.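 Rule for the calls: active = compounds whose peak USP7 inhibition across the dose series reached 30% or more; inactive = the rest.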

The compounds below were run against Ubiquitin carboxyl-terminal hydrolase 7 (Homo sapiens) (UniProt Q93009) (assay: Biochemical concentration-response for ubiquitin-specific peptidase 7 DUB inhibitors, verifying primary hits (AID 1645861)). Settings: purified USP7, Ub-rhodamine cleavage fluorescence, 60 min.
Chain of Ubiquitin carboxyl-terminal hydrolase 7 (Homo sapiens) (Q93009 whole entry, looked up): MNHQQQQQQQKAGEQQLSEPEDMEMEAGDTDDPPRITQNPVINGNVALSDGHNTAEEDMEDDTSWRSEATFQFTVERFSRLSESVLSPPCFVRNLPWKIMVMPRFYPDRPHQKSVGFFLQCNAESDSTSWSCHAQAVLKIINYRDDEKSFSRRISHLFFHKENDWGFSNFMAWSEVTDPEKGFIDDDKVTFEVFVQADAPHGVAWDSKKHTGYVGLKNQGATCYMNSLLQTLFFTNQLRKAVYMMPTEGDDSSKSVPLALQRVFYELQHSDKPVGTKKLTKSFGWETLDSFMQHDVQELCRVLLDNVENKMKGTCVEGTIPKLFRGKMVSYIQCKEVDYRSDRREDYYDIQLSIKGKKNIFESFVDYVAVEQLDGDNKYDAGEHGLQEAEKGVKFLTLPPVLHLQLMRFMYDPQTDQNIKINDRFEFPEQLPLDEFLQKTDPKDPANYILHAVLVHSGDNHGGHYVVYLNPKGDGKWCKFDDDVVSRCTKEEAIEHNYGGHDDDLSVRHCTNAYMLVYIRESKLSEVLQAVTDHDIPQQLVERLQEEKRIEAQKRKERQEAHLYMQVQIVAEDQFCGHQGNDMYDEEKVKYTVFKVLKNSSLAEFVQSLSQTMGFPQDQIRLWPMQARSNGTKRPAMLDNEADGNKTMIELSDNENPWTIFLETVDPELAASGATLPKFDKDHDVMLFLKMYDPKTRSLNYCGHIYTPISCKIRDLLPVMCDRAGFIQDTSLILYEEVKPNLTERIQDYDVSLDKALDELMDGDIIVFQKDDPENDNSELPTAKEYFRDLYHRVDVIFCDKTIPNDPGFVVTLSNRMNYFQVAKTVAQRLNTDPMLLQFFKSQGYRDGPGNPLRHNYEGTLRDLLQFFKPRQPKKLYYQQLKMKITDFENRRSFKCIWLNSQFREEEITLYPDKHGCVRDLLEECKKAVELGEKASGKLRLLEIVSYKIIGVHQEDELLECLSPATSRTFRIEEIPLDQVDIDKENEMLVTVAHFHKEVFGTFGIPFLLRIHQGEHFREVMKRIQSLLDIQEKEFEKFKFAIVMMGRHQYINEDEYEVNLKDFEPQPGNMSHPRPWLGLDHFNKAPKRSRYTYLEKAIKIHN

Structure (SMILES)	IC50
Cc1ccc(Cl)cc1NC(=O)Cn1c(=O)n(CCC(=O)NCc2ccco2)c(=O)c2ccccc21	> 50 µM (inactive)
Cc1cccc(Cl)c1NC(=O)Nc1ccc(NC(=O)c2ccccc2O)cc1	> 50 µM (inactive)
COc1ccc(Nc2nc3c(S(=O)(=O)c4ccc(C)cc4)nnn3c3ccsc23)c(OC)c1	> 50 µM (inactive)
Cc1ccc(-c2nc(NC(=O)COc3ccc(Cl)cc3)no2)cc1	22.5 µM
O=C(O)c1cccc(NC(=O)C(Sc2cccc(NC(=O)c3cccc(Cl)c3)c2)c2ccccc2)c1 (stereo unspecified)	45.8 µM
O=c1c2ccccc2oc2nc(-c3cccs3)n(-c3ccccc3)c(=O)c12	> 50 µM (inactive)
O=C(c1cnc2[nH][nH]c(=O)c2c1)c1cc(Cl)cc(Cl)c1O	15.1 µM
Cc1ccnc(NS(=O)(=O)c2ccc(NC(=O)c3ccc(S(=O)(=O)N(C)Cc4ccccc4)cc3)cc2)n1	> 50 µM (inactive)
Nc1ccc(C(=O)OCC(=O)NC2CCCc3ccccc32)cc1[N+](=O)[O-] (stereo unspecified)	> 50 µM (inactive)
Cc1ccc(Nc2nc(O)c(CC(=O)Nc3cccc(Cl)c3C)s2)cc1C	> 50 µM (inactive)
O=C(Cn1cccc(-c2nc(-c3ccccc3)no2)c1=O)Nc1ccccc1F	> 50 µM (inactive)
Cn1c2ccccc2c(=O)c2c(=O)n(-c3cccc(Cl)c3)c(-c3cccs3)nc21	35.1 µM
CCCCCCCc1cc(OC(=O)c2c(CCCCCCC)cc(O)cc2O[C@@H]2O[C@H](CO)[C@H](O)[C@H](O)[C@H]2O)cc(O)c1C(=O)O	21.4 µM
Cc1nn(-c2ccccc2)c2c1C1(C(=O)Nc3ccccc31)N1C(=N2)Sc2ccccc21 (stereo unspecified)	3.39 µM
CC(=O)Nc1ccc(NC(=O)c2ccc3c(c2)CC(c2ccccc2)OC3=O)cc1 (stereo unspecified)	> 50 µM (inactive)
Cc1ccc(CNC(=O)Cn2c(=O)n(CCCC(=O)NCc3ccc(F)cc3)c(=O)c3ccccc32)cc1	> 50 µM (inactive)
O=C1c2ccccc2C(=O)c2c(O)c(O)cc(O)c21	45.6 µM
Cc1nc(-c2noc(-c3cccc(F)c3)n2)cn1CC(=O)Nc1ccccc1	> 50 µM (inactive)
COc1cc(-c2ccccc2)c(O)c(O)c1-c1ccccc1	22.1 µM
CCN(CC)Cc1ccc(-c2nnc(-c3cnc4onc(C)c4c3)o2)o1	> 50 µM (inactive)
Cc1cc(OCC(=O)Nc2ccccc2C(=O)Nc2ccccc2)ccc1Cl	> 50 µM (inactive)
CCc1nc(SCC(=O)Nc2ccc(C)cc2C)c2oc3ccccc3c2n1	> 50 µM (inactive)

Structure (SMILES)	IC50
FC(F)(F)c1ccc(Nc2nnnc3ccccc23)cc1	20.5 µM
COC1=C(C2=C(OC)C(=O)c3cc4c(c(O)c3C2=O)C(=O)OC(C)C4)C(=O)c2c(cc3c(c2O)C(=O)OC(C)C3)C1=O (stereo unspecified)	44.7 µM
O=C1Cc2ccccc2C(=O)N1Cc1cccc(Cl)c1	> 50 µM (inactive)
Cc1ccc(Nc2nc(NCC(=O)Nc3cc(C)ccc3C)nc(Nc3ccc(C)cc3)n2)cc1	> 50 µM (inactive)
COc1ccc(-c2nc3c(c(=O)c4ccccc4n3C)c(=O)n2Cc2ccco2)cc1	46.9 µM
CC(C)=CCC(O)C1=CC(=O)c2c(O)ccc(O)c2C1=O (stereo unspecified)	9.02 µM
COc1cn(-c2ccc(F)cc2)nc1C(=O)Nc1ccc(Cl)cc1Cl	> 50 µM (inactive)
NC(=O)c1ccccc1NC(=O)COc1ccc2c(c1)oc(=O)c1ccccc12	> 50 µM (inactive)
O=C(COC(=O)c1ccc(NS(=O)(=O)c2ccc(F)c(F)c2)cc1)Nc1ccc(OCc2ccccc2)cc1	> 50 µM (inactive)
COc1ccc(Cl)cc1NC(=O)c1nc(-c2cn(-c3ccccc3)nn2)no1	> 50 µM (inactive)
CC(C)=CCC/C(C)=C/COc1ccc(/C=C2\C(=O)N(O)[C@@H](C)C(=O)N2O)cc1	> 50 µM (inactive)
CC(C)=CCOC(C)(C)[C@H]1OC2CC[C@@]3(C)C(CCC4Cc5c([nH]c6ccccc56)[C@@]43C)C23OC3[C@@H]1O (stereo partly specified)	37.7 µM
Cc1cc(C(=O)N2CCOCC2)c(C)n1-c1ccc(O)cc1	> 50 µM (inactive)
C=C/C(=C/C(=O)C[C@H](C)C[C@@H](C)CC[C@H](O)[C@H](C)C(=O)CC(O)[C@H](C)[C@@H](C)OC(=O)C[C@@H](O)C1=C(C)C(=O)OC1=O)CC (stereo partly specified)	43.1 µM
Cc1ccc(-n2cc(-c3noc(C(=O)Nc4ccc(F)cc4C)n3)nn2)cc1	> 50 µM (inactive)
COc1cc2c(=O)n(CC3CCCO3)c(=O)n(CC(=O)c3ccc4c(c3)OCO4)c2cc1OC (stereo unspecified)	> 50 µM (inactive)
COc1cccc(C(=O)Nc2ccc(SC(C)C(=O)Nc3ccc(C(N)=O)cc3)cc2)c1 (stereo unspecified)	> 50 µM (inactive)
O=C1c2c(O)c(Cl)cc3c2[C@@]2(Oc4ccc(O)c5c4[C@]3(O2)[C@@H]2O[C@@H]2C5=O)[C@@H]2O[C@H]12	16.3 µM
Oc1cccc2c(-c3ccc(O)c4c(O)cccc34)ccc(O)c12	> 50 µM (inactive)
O=C1Cc2ccccc2C(=O)N1c1ccc2c(c1)OCO2	> 50 µM (inactive)
CCc1noc(-c2ccn3c(CC(=O)Nc4ccccc4C)nnc3c2)n1	> 50 µM (inactive)
COC(=O)c1ccc(Nc2cc(C)nc3cc(C(F)(F)F)ccc23)cc1	> 50 µM (inactive)

Structure (SMILES)	IC50
Cc1cc(=O)n(C)c2c(O)c3c(cc12)c(C)cc(=O)n3C	> 50 µM (inactive)
CCc1nc(SCC(=O)Nc2ccc(Cl)c(Cl)c2)c2oc3ccccc3c2n1	> 50 µM (inactive)
O=C(Cn1c(=O)c2ccccc2n(CC(=O)Nc2cccc(F)c2)c1=O)NCCc1ccccc1	> 50 µM (inactive)
CC(C)=CCCC1(C)C=Cc2c(O)c3c(c(CC=C(C)C)c2O1)OC12C(=CC4CC1C(C)(C)OC2(C/C=C(/C)C(=O)O)C4=O)C3=O (stereo unspecified)	17.4 µM
O=C(Cn1c(=O)n(CCC(=O)N2CCc3ccccc3C2)c(=O)c2ccccc21)NCc1ccccc1Cl	> 50 µM (inactive)
COC(=O)c1ccc2c(=O)n(CCCCCC(=O)NCCc3ccccc3Cl)c(=O)[nH]c2c1	> 50 µM (inactive)
O=C(Nc1ccc(-c2cn3ccsc3n2)cc1)c1ccc(Cl)c([N+](=O)[O-])c1	39.5 µM
O=C(CCCn1c(=O)[nH]c2cc(Cl)ccc2c1=O)NCCCN1CCCC1=O	> 50 µM (inactive)
O=S(=O)(Nc1ccc(Oc2ncnc3cc(Cl)ccc23)nc1)c1ccc(S(=O)(=O)c2ccccc2)s1	49.6 µM
CCCC(O)CCCCCCCc1cc(O)cc(O)c1C(=O)OC(CCC)CCCCCCCc1cc(O)cc(O)c1 (stereo unspecified)	> 50 µM (inactive)
CN(C)[C@@H]1C(=O)C(C(N)=O)=C(O)[C@@]2(O)C(=O)C3=C(O)c4c(O)cccc4[C@@](C)(O)C3[C@H](O)[C@@H]12 (stereo partly specified)	6.37 µM
CCC(=O)Nc1cccnc1-c1ccc(C(=O)Nc2ccc3c(c2)OCO3)cc1	> 50 µM (inactive)
COc1cc2c(c(OCC(=O)Nc3ccc4c(c3)OCCO4)c1)C(=O)O[C@@H](C)CCCC(=O)CCCCC2	> 50 µM (inactive)
N#Cc1ccccc1NC(=O)c1cc2c(s1)-c1ccccc1S(=O)(=O)C2	> 50 µM (inactive)
O=C(Cn1c(=O)c2ccccc2n(CC(=O)Nc2ccc(Br)cc2)c1=O)NCc1ccco1	> 50 µM (inactive)
O=c1[nH]c2ccc(S(=O)(=O)Nc3ccc(O)c4ccccc34)cc2[nH]1	> 50 µM (inactive)
Cn1nc(C(=O)N2CCC(c3ccccc3)C2)c2c1-c1ccsc1CC2 (stereo unspecified)	> 50 µM (inactive)
CC(C)Cc1ccc(-c2cc(-c3ccc(C(F)(F)F)cc3)c(C#N)c(=O)[nH]2)cc1	> 50 µM (inactive)
O=C(CCn1c(=O)c2ccccc2n(Cc2ccc(F)cc2Cl)c1=O)NCc1ccco1	> 50 µM (inactive)
CCOC(=O)N1CCN(C(=O)c2ccc(NCc3ccc(F)cc3)c(S(=O)(=O)Nc3cccc(C(F)(F)F)c3)c2)CC1	> 50 µM (inactive)
O=C(Nc1ccccc1C(=O)O)c1ccc(CSCc2ccccc2)cc1	> 50 µM (inactive)
COc1ccc(NC(=O)Cn2c(=O)n(CCCC(=O)NC3CCCC3)c(=O)c3cc(Cl)ccc32)c(OC)c1	> 50 µM (inactive)

Structure (SMILES)	IC50
CC(C)CCCCCCCCCCC(=O)N(C)[C@H](CO)C(=O)N[C@H](C)C(=O)NCC(=O)N(C)C1C(=O)N[C@@H](C)C(=O)NC(C(=O)O)Cc2ccc(O)c(c2)-c2cc1ccc2O (stereo partly specified)	> 50 µM (inactive)
Cc1ccc(-n2cc(C(=O)NCCCc3ccccc3)nn2)cc1	> 50 µM (inactive)
O=C1CSC(c2ccc3c(c2)OCO3)c2c(n(C3CCCCCC3)[nH]c2=O)N1 (stereo unspecified)	> 50 µM (inactive)
CC(=O)[C@H]1c2c(c(O)c3c(O)cccc3c2-c2c3c(c(O)c4c(O)cccc24)C(=O)C[C@](C)(O)[C@H]3C(C)=O)C(=O)C[C@]1(C)O	> 50 µM (inactive)
COc1cc2c(=O)n(Cc3ccccc3)c(=O)n(CC(=O)N3CCCc4ccccc43)c2cc1OC	> 50 µM (inactive)
C=C1C=C(CCC(=O)O)C(=O)OC1/C=C/C=C/C (stereo unspecified)	18.2 µM
O=C1C(=O)N(c2nc3ccc(F)cc3s2)C(c2ccc(F)cc2)/C1=C(\O)c1ccc(F)cc1 (stereo unspecified)	30.6 µM
O=C(Cn1c(-c2ccccc2)ncc(C(=O)NC2CC2)c1=O)Nc1ccccc1	> 50 µM (inactive)
Cc1cc(=O)n(CC(=O)Nc2ccccc2C)c(Nc2ccc(F)cc2)n1	> 50 µM (inactive)
O=C1c2c(O)ccc(O)c2C2(Oc3cccc4cccc(c34)O2)C2OC12 (stereo unspecified)	> 50 µM (inactive)
CCOC(=O)c1ccc(NC(=O)Cn2c(=O)n(-c3ccc(CC(=O)NCc4ccco4)cc3)c(=O)c3ccccc32)cc1	> 50 µM (inactive)
O=C(Nc1ccccc1)[C@@H]1[C@@H]2C(=O)N(c3ccc([N+](=O)[O-])cc3)C(=O)[C@@H]2[C@H]2c3ccccc3C=CN12	> 50 µM (inactive)
O=C(Cn1c(=O)c2ccccc2c2ccccc21)Nc1ccc2c(c1)OCO2	> 50 µM (inactive)
O=C(/C=C/c1ccc(F)cc1)N1CCc2ccccc2C1	> 50 µM (inactive)
Cn1c(CCNC(=O)c2[nH]nc3c2CCc2ccccc2-3)nc2ccccc21	> 50 µM (inactive)
Nc1c(-c2nc(-c3ccccc3Cl)no2)nnn1-c1ccc(Cl)cc1	> 50 µM (inactive)
Cc1ccc(S(=O)(=O)Nc2ccccc2C(=O)Nc2nc3ccc(Br)cc3s2)cc1	10 µM
O=C(NCc1ccc2c(c1)OCO2)c1[nH]nc2c1COc1ccccc1-2	> 50 µM (inactive)
COc1ccc([N+](=O)[O-])cc1NC(=O)COC(=O)c1ccc2[nH]c3c(c2c1)CCCC3	> 50 µM (inactive)
O=C(CSc1oc(-c2ccc(F)cc2)nc1S(=O)(=O)c1ccc(F)cc1)Nc1ccc(F)cc1	> 50 µM (inactive)
